The source of these data is patent US11149033B2, “Heteroaryl compound, enantiomer, diastereomer or pharmaceutically acceptable salt thereof, and antiviral composition containing same as active ingredient” (priority 2016, dated 2021).

One data set has as its system A/Perth/16/2009 (H3N2). The data set is described as follows: Antiviral activity (drug efficacy evaluation by concentration) against A/Perth/16/2009 (H3N2). In kind it is cell-based, A type influenza virus. Particulars: Influenza A virus, H3N2; read-out: EC50.
Where [1] appears, read: CC50, third EC50/CC50 column pair (c7), beside the EC50 of c6.
Where [2] appears, read: CC50 B/Florida/04/2006, cytotoxicity in the B/Florida/04/2006 assay.

Broadly, the melting point is the temperature of the solid-liquid transition. The EC50 is the midpoint of the concentration-response curve.

On to `Fc1ccc(/C=C/c2nnc(Cc3cncc4ccccc34)o2)c(Cl)c1` [Compound 238, 2-(2-chloro-4-fluorostyryl)-5-(isoquinolin-4-ylmethyl)-1,3,4-oxadiazole], for which the melting point was 171.3 °C.

With `Fc1ccc(/C=C/c2nnc(Cc3ccc(F)c(Br)c3)o2)c(F)c1` [Compound 263, 2-(3-bromo-4-fluorobenzyl)-5-(2,4-difluorostyryl)-1,3,4-oxadiazole], the melting point was 115 °C.

Compound `Fc1ccc(/C=C/c2nnc(Cc3cccc(C(F)F)c3)o2)c(Cl)c1` [Compound 299, 2-(2-chloro-4-fluorostyryl)-5-(3-(difluoromethyl)benzyl)-1,3,4-oxadiazole] registered a melting point of 108.1 °C.

For the compound `Fc1ccc(Oc2ccccc2/C=C/c2nnc(Cc3ccc(Br)cc3)o2)cc1` [Compound 155, 2-(4-bromobenzyl)-5-(2-(4-fluorophenoxy)styryl)-1,3,4-oxadiazole], the CC50 in “in vitro” (CC50, beside the EC50 of c2) was > 50 µM; in “in vitro” (CC50, beside the EC50 of c4), > 50 µM; in the data set “in vitro” (setting [1]) it was > 50 µM.

In the case of `Cc1ccccc1CSc1ncc(CNc2ccc(Br)cc2)o1` [Compound 99, 4-bromo-N-((2-((2-methylbenzyl)thio)oxazol-5-yl)methyl)aniline], the CC50 in “in vitro” (CC50, beside the EC50 of c2) is > 50 µM; in the data set “in vitro” (CC50, beside the EC50 of c4) it was > 50 µM; in the data set “in vitro” (setting [1]), > 50 µM.

`Fc1cccc(Cc2nnc(/C=C/c3ccc(F)cc3Cl)o2)c1` [Compound 226, 2-(2-chloro-4-fluorostyryl)-5-(3-fluorobenzyl)-1,3,4-oxadiazole]: the melting point is 132.5 °C.

With `O=C(Nc1cccc(Br)c1)c1nnc(/C=C/c2ccc(F)cc2Cl)o1` [Compound 253, N-(3-bromophenyl)-5-(2-chloro-4-fluorostyryl)-1,3,4-oxadiazole-2-carboxamide], the melting point turned out to be 254.2 °C.

Take `CSc1nnc(Cc2ccccc2)o1` [Compound 80, 2-benzyl-5-(methylthio)-1,3,4-oxadiazole]: in “in vitro” (setting [2]), the CC50 was > 50 µM.

In turn, `Fc1ccc(/C=C/c2nnc(Cc3cccc4cccnc34)o2)c(Cl)c1` [Compound 236, 2-(2-chloro-4-fluorostyryl)-5-(quinolin-8-ylmethyl)-1,3,4-oxadiazole] registered a melting point of 171.9 °C.

`Oc1ccccc1/C=C/c1nnc(Cc2cccc(Br)c2)o1` [Compound 218, 2-(2-(5-(3-bromobenzyl)-1,3,4-oxadiazol-2-yl)vinyl)phenol]: the melting point is 179.9 °C.

In the case of `Cc1ccc(Cc2nnc(/C=C/c3ccc(F)cc3Cl)o2)cc1Cl` [Compound 300, 2-(2-chloro-4-fluorostyryl)-5-(3-chloro-4-methylbenzyl)-1,3,4-oxadiazole], the melting point is 161.4 °C.

As for `Brc1ccc(Cc2nnc(-c3ccc4ccccc4c3)o2)cc1` [Compound 98, 2-(4-bromobenzyl)-5-(naphthalen-2-yl)-1,3,4-oxadiazole], the CC50 is > 50 µM in “in vitro” (CC50, beside the EC50 of c2); > 50 µM in “in vitro” (CC50, beside the EC50 of c4); > 50 µM in the data set “in vitro” (setting [1]).

In turn, `O=C(O)c1ccccc1/C=C/c1nnc(Cc2cccc(Br)c2)o1` [Compound 243, 2-(2-(5-(3-bromobenzyl)-1,3,4-oxadiazol-2-yl)vinyl)benzoic acid] had a melting point of 167.7 °C.

As for `CC(C)c1ccccc1/C=C/c1nnc(Cc2ccccc2)o1` [Compound 196, 2-benzyl-5-(2-isopropylstyryl)-1,3,4-oxadiazole], the CC50 was > 50 µM in the data set “in vitro” (CC50, beside the EC50 of c2); > 50 µM in the data set “in vitro” (CC50, beside the EC50 of c4); > 50 µM in “in vitro” (setting [1]).

The compound `Fc1ccc(/C=C/c2nnc(Cc3nccc4ccccc34)o2)c(Cl)c1` [Compound 237, 2-(2-chloro-4-fluorostyryl)-5-(isoquinolin-1-ylmethyl)-1,3,4-oxadiazole] returned a melting point of 171.4 °C.

`Fc1ccc(/C=C/c2nnc(Cc3cccc(Br)c3F)o2)c(Cl)c1` [Compound 293, 2-(3-bromo-2-fluorobenzyl)-5-(2-chloro-4-fluorostyryl)-1,3,4-oxadiazole] had a melting point of 135.8 °C.

`Fc1ccc(/C=C/c2nnc(Cc3cccc(C4CC4)c3)o2)c(Cl)c1` [Compound 267, 2-(2-chloro-4-fluorostyryl)-5-(3-cyclopropylbenzyl)-1,3,4-oxadiazole] showed a melting point of 110.2 °C.

Consider `CC(C)c1ccccc1/C=C/c1nnc(Cc2ccc(-c3ccccc3)cc2)o1` [Compound 142, 2-([1,1′-biphenyl]-4-ylmethyl)-5-(2-isopropylstyryl)-1,3,4-oxadiazole], for which the CC50 in the data set “in vitro” (CC50, beside the EC50 of c2) is > 50 µM; in “in vitro” (CC50, beside the EC50 of c4), > 50 µM; in the data set “in vitro” (setting [1]), > 50 µM.

In turn, `Cc1cccc(Cc2nnc(/C=C/c3ccc(F)cc3Cl)o2)c1` [Compound 211, 2-(2-chloro-4-fluorostyryl)-5-(3-methylbenzyl)-1,3,4-oxadiazole] gave a melting point of 100.5 °C.

In turn, `Cc1ccc(Cc2nnc(/C=C/c3ccc(F)cc3N(C)CCc3ccccc3)o2)cc1Br` [Compound 305, 2-(2-(5-(3-bromo-4-methylbenzyl)-1,3,4-oxadiazol-2-yl)vinyl)-5-fluoro-N-methyl-N-phenethylaniline] yielded a melting point of 80.7 °C.

On to `Fc1cccc(/C=C/c2nnc(Cc3cccc(Br)c3)o2)c1F` [Compound 280, 2-(3-bromobenzyl)-5-(2,3-difluorostyryl)-1,3,4-oxadiazole], for which the melting point worked out at 97.4 °C.

As to `Fc1cc(Br)cc(Cc2nnc(/C=C/c3ccc(F)cc3Cl)o2)c1` [Compound 292, 2-(3-bromo-5-fluorobenzyl)-5-(2-chloro-4-fluorostyryl)-1,3,4-oxadiazole], the melting point stood at 143 °C.

Turning to `Cc1ccc(Cc2nnc(/C=C/c3ccc(F)cc3Br)o2)cc1Br` [Compound 265, 2-(2-bromo-4-fluorostyryl)-5-(3-bromo-4-methylbenzyl)-1,3,4-oxadiazole], the melting point stood at 152.6 °C.

`Fc1ccc(/C=C/c2nnc(Cc3cccc(Cl)c3F)o2)c(Cl)c1` [Compound 291, 2-(3-chloro-2-fluorobenzyl)-5-(2-chloro-4-fluorostyryl)-1,3,4-oxadiazole]: the melting point stood at 118.1 °C.

With `Cc1ccc2cccc(Cc3nnc(/C=C/c4ccc(F)cc4Cl)o3)c2n1` [Compound 295, 2-(2-chloro-4-fluorostyryl)-5-((2-methylquinolin-8-yl)methyl)-1,3,4-oxadiazole], the melting point is 191.2 °C.

Regarding `Cc1cccc(Cc2nnc(/C=C/c3ccc(F)cc3Cl)o2)c1C` [Compound 221, 2-(2-chloro-4-fluorostyryl)-5-(2,3-dimethylbenzyl)-1,3,4-oxadiazole], the melting point is 139.3 °C.

In the case of `Fc1cc(F)c(/C=C/c2nnc(Cc3cccc(Br)c3)o2)c(Cl)c1` [Compound 245, 2-(3-bromobenzyl)-5-(2-chloro-4,6-difluorostyryl)-1,3,4-oxadiazole], the melting point was 112 °C.

Compound `Cn1cc(Cc2nnc(/C=C/c3ccc(F)cc3Cl)o2)c2ccccc21` [Compound 213, 2-(2-chloro-4-fluorostyryl)-5-((1-methyl-1H-indol-3-yl)methyl)-1,3,4-oxadiazole] showed a melting point of 148.1 °C.

`Cc1c(Br)cccc1Cc1nnc(/C=C/c2ccc(F)cc2Cl)o1` [Compound 294, 2-(3-bromo-2-methylbenzyl)-5-(2-chloro-4-fluorostyryl)-1,3,4-oxadiazole] registered a melting point of 158.3 °C.

`CN(C)c1cccc(Cc2nnc(/C=C/c3ccc(F)cc3Cl)o2)c1` [Compound 217, 3-((5-(2-chloro-4-fluorostyryl)-1,3,4-oxadiazol-2-yl)methyl)-N,N-dimethylaniline] came in with a melting point of 134.2 °C.

As for `Cc1ccc(Br)cc1Cc1nnc(/C=C/c2ccc(F)cc2Cl)o1` [Compound 282, 2-(5-bromo-2-methylbenzyl)-5-(2-chloro-4-fluorostyryl)-1,3,4-oxadiazole], the melting point came out at 169.3 °C.

On to `COC(=O)c1ccccc1/C=C/c1nnc(Cc2cccc(Br)c2)o1` [Compound 242, methyl-2-(2-(5-(3-bromobenzyl)-1,3,4-oxadiazol-2-yl)vinyl)benzoate], for which the melting point worked out at 131.1 °C.

In the case of `Cc1nc2ccccc2n1Cc1nnc(/C=C/c2ccc(F)cc2Cl)o1` [Compound 203, (E)-2-(2-chloro-4-fluorostyryl)-5-((2-methyl-1H-benzo[d]imidazol-1-yl)methyl)-1,3,4-oxadiazole], the half-maximal effective concentration (EC50) with A/Perth/16/2009 (H3N2) turned out to be 15.4 µM. Further, the CC50 in “in vitro” (CC50, beside the EC50 of c2) was > 50 µM; in the data set “in vitro” (CC50, beside the EC50 of c4), > 50 µM; in the data set “in vitro” (setting [1]), > 50 µM.

Consider `CN(c1ccc(Br)cc1)c1nnc(SCc2ccccc2-c2ccccc2)o1` [Compound 65, 5-(([1,1′-biphenyl]-2-ylmethyl)thio)-N-(4-bromophenyl)-N-methyl-1,3,4-oxadiazol-2-amine], for which the CC50 in the data set “in vitro” (setting [2]) is > 50 µM.

Consider `Cc1ccccc1CCc1nnc(Cc2ccc(F)c(Cl)c2)o1` [Compound 108, 2-(3-chloro-4-fluorobenzyl)-5-(2-methylphenethyl)-1,3,4-oxadiazole], for which the concentration giving a half-maximal response (EC50) in the data set on A/Perth/16/2009 (H3N2) was > 50 µM. The CC50 in “in vitro” (CC50, beside the EC50 of c2) is > 50 µM; in the data set “in vitro” (CC50, beside the EC50 of c4), > 50 µM; in the data set “in vitro” (setting [1]), > 50 µM.

Consider `Cc1cc(F)ccc1/C=C/c1nnc(Cc2cccc(Br)c2)o1` [Compound 186, 2-(3-bromobenzyl)-5-(4-fluoro-2-methylstyryl)-1,3,4-oxadiazole], for which the CC50 in “in vitro” (CC50, beside the EC50 of c2) is > 50 µM; in the data set “in vitro” (CC50, beside the EC50 of c4), > 50 µM; in “in vitro” (setting [1]), > 50 µM.

Turning to `[O-][S+](Cc1ccccc1-c1ccccc1)c1nnc(Cc2ccc(Br)cc2)o1` (centres unmarked) [Compound 59, 2-(([1,1′-biphenyl]-2-ylmethyl)sulfinyl)-5-(4-bromobenzyl)-1,3,4-oxadiazole], the CC50 in the data set “in vitro” (setting [2]) was > 50 µM.

As to `CC(C)c1ccc(Cc2nnc(SCc3ccccc3-c3ccccc3)o2)cc1` [Compound 107, 2-(([1,1′-biphenyl]-2-ylmethyl)thio)-5-(4-isopropylbenzyl)-1,3,4-oxadiazole], the EC50 in the data set on A/Perth/16/2009 (H3N2) was found to be 20.6 µM. Also, the CC50 in “in vitro” (CC50, beside the EC50 of c2) is > 50 µM; in the data set “in vitro” (CC50, beside the EC50 of c4) it was > 50 µM; in the data set “in vitro” (setting [1]) it was > 50 µM.
